The source of these data is PubChem BioAssay AID296 (DTP/NCI, 2004).

Several values for one entry are separate records, joined by “and”; a condition that tells them apart may be missing. Equal entries are not always repeated. Records with an inconclusive call do not appear.

The subject of this test is MX-1 breast xenograft, nude mice, tumor weight T/C. The test is described as follows: NCI In Vivo Anticancer Drug Screen. Data for tumor model Human Mammary Carcinoma MX-1 Xenograft (intrarenal inoculation) in NU/NU Swiss (nude) mice. To be noted: endpoint: mean tumor weight change, higher = larger tumour. How it is done:
The antitumor activity of compounds was measured in mice bearing transplantable tumors. Survival or tumor size were measured and the results are expressed as the measurement made in the treated group (T) divided by the measurement made in the vehicle treated control group (C). The tumor model used in this assay is Human Mammary Carcinoma MX-1 Xenograft (intrarenal inoculation) in NU/NU Swiss (nude) mice
In general terms: A xenograft is tissue or cells of one species grown in another, often human tumour cells in immunodeficient mice.

[1] abbreviates: dose: 300.0 mg/kg/injection, schedule: Q04DX003 (sc), vehicle: Klucel (hydroxypropylcellulose) (HPC).
Where [2] appears, read: dose: 600.0 mg/kg/injection, schedule: Q04DX003 (sc), vehicle: Klucel (hydroxypropylcellulose) (HPC).
The mark [3] stands for this setting: dose: 300.0 mg/kg/injection, schedule: Q04DX003 (sc), vehicle: saline with Tween-80.
The mark [4] stands for this setting: dose: 600.0 mg/kg/injection, schedule: Q04DX003 (sc), vehicle: saline with Tween-80.
Where [5] appears, read: dose: 1200.0 mg/kg/injection, schedule: Q04DX003 (sc), vehicle: saline with Tween-80.
The mark [6] stands for this setting: dose: 2400.0 mg/kg/injection, schedule: Q04DX003 (sc), vehicle: saline with Tween-80.
Setting [7] is: dose: 12.5 mg/kg/injection, schedule: Q01DX010 (sc), vehicle: saline with Tween-80.

Regarding `CCCCCCCC(=O)OCC(=O)[C@]1(O)Cc2c(O)c3c(c(O)c2[C@@H](OC2CC(N)C(O)C(C)O2)C1)C(=O)c1c(OC)cccc1C3=O` (stereo partly specified), the T/C runs as follows: (dose: 4.0 mg/kg/injection, schedule: Q01DX010 (sc), vehicle: suspension in saline) 17 % of control; (dose: 8.0 mg/kg/injection, schedule: Q01DX010 (sc), vehicle: suspension in saline) 2 % of control.
As for `O=c1nc(-c2ccco2)sc(=O)[nH]1`, the T/C was 122 % of control (dose: 75.0 mg/kg/injection, schedule: Q04DX003 (sc), vehicle: Klucel (hydroxypropylcellulose) (HPC)); 90 % of control (dose: 150.0 mg/kg/injection, schedule: Q04DX003 (sc), vehicle: Klucel (hydroxypropylcellulose) (HPC)); 54 % of control under setting [1]; 58 % of control under setting [2].
Turning to `Nc1nc(N)c(N=O)c(Nc2ccc(Br)cc2)n1`, the T/C is, setting by setting: under setting [3], 42 % of control; under setting [4], 42 % of control; under setting [5], 38 % of control; under setting [6], 40 % of control.
In the case of `O=CC(CO)CC(C=O)n1cnc2c(=O)[nH]cnc21` (stereo unspecified), the T/C was 62 % of control (dose: 150.0 mg/kg/injection, schedule: Q04DX003 (ip), vehicle: saline); 57 % of control (dose: 300.0 mg/kg/injection, schedule: Q04DX003 (ip), vehicle: saline); 30 % of control (dose: 600.0 mg/kg/injection, schedule: Q04DX003 (ip), vehicle: saline).
On to `CC[n+]1c(-c2ccccc2)c2cc(N)ccc2c2ccc(N)cc21`, for which the T/C reads like this: (dose: 15.0 mg/kg/injection, schedule: Q04DX003 (sc), vehicle: saline) 119 % of control; (dose: 30.0 mg/kg/injection, schedule: Q04DX003 (sc), vehicle: saline) 110 % of control; (dose: 60.0 mg/kg/injection, schedule: Q04DX003 (sc), vehicle: saline) 83 % of control.
As to `CN(C)N=Nc1ccc(S(N)(=O)=O)cc1`, the T/C is 75 % of control (dose: 100.0 mg/kg/injection, schedule: Q01DX010 (sc), vehicle: Klucel (hydroxypropylcellulose) (HPC)); 47 % of control (dose: 200.0 mg/kg/injection, schedule: Q01DX010 (sc), vehicle: Klucel (hydroxypropylcellulose) (HPC)); 42 % of control (dose: 400.0 mg/kg/injection, schedule: Q01DX010 (sc), vehicle: Klucel (hydroxypropylcellulose) (HPC)).
In the case of `O=C(O)CC(NC(=O)CP(=O)(O)O)C(=O)O.[NH-]C1CCCCC1[NH-].[Pt+2]` (stereo unspecified), the T/C by setting is: (dose: 12.5 mg/kg/injection, schedule: Q04DX003 (sc), vehicle: dextrose) 175 % of control; (dose: 25.0 mg/kg/injection, schedule: Q04DX003 (sc), vehicle: dextrose) 43 % of control and 62 % of control; (dose: 100.0 mg/kg/injection, schedule: Q04DX003 (sc), vehicle: dextrose) 12 % of control.
Take `OCC1OC(n2cnc3c(NO)ncnc32)C(O)C1O` (stereo unspecified): the T/C under setting [1] was 65 % of control; the T/C under setting [2] was 70 % of control; the T/C (dose: 1200.0 mg/kg/injection, schedule: Q04DX003 (sc), vehicle: Klucel (hydroxypropylcellulose) (HPC)) is 100 % of control; the T/C (dose: 2400.0 mg/kg/injection, schedule: Q04DX003 (sc), vehicle: Klucel (hydroxypropylcellulose) (HPC)) was 82 % of control.
Consider `CCOC(=O)Nc1cc2c(c(N)n1)N=C(CN(C)c1ccccc1)CN2`, for which the T/C was 82 % of control (dose: 25.0 mg/kg/injection, schedule: Q01DX010 (sc), vehicle: Klucel (hydroxypropylcellulose) (HPC)) and 70 % of control (dose: 50.0 mg/kg/injection, schedule: Q01DX010 (sc), vehicle: Klucel (hydroxypropylcellulose) (HPC)).
Consider `COc1cccc2c1C(=O)c1c(O)c3c(c(O)c1C2=O)C[C@@](O)(/C(CO)=N/NC(=O)c1ccc(Cl)c(Cl)c1)C[C@@H]3OC1CC(N)C(O)C(C)O1` (stereo partly specified), for which the T/C (dose: 8.0 mg/kg/injection, schedule: Q01DX010 (sc), vehicle: water) is 42 % of control.
Regarding `Nc1nc(-c2ccccc2)c(Br)c(=O)[nH]1`, the T/C runs as follows: under setting [3], 96 % of control; under setting [4], 93 % of control; under setting [5], 109 % of control; under setting [6], 65 % of control.
Consider `Cc1ccc(C(=O)NC2C(=O)NC(C(C)C)C(=O)N3CCCC3C(=O)N(C)CC(=O)N(C)C(C(C)C)C(=O)OC2C)c2c1Oc1c(c(C(=O)NC3C(=O)NC(C(C)C)C(=O)N4CCCC4C(=O)N(C)CC(=O)N(C)C(C(C)C)C(=O)OC3C)c3nc(-c4ccccc4)c(=O)oc3c1C)N2` (stereo unspecified), for which the T/C reads like this: (dose: 0.25 mg/kg/injection, schedule: Q04DX003 (ip), vehicle: water) 77 % of control; (dose: 0.5 mg/kg/injection, schedule: Q04DX003 (ip), vehicle: water) 75 % of control; (dose: 1.0 mg/kg/injection, schedule: Q04DX003 (ip), vehicle: water) 49 % of control; (dose: 2.0 mg/kg/injection, schedule: Q04DX003 (ip), vehicle: water) 51 % of control; (dose: 4.0 mg/kg/injection, schedule: Q04DX003 (ip), vehicle: water) 12 % of control.
Turning to `NC(=O)c1csc(C2OC(CO)C(O)C2O)n1` (stereo unspecified), the T/C is 90 % of control (dose: 200.0 mg/kg/injection, schedule: Q04DX003 (sc), vehicle: water); 96 % of control (dose: 400.0 mg/kg/injection, schedule: Q04DX003 (sc), vehicle: water); 118 % of control (dose: 800.0 mg/kg/injection, schedule: Q04DX003 (sc), vehicle: water).
As for `O=c1[nH]cnc2n[nH]nc12`, the T/C was 54 % of control (dose: 100.0 mg/kg/injection, schedule: Q04DX003 (sc), vehicle: Klucel (hydroxypropylcellulose) (HPC)); 27 % of control (dose: 200.0 mg/kg/injection, schedule: Q04DX003 (sc), vehicle: Klucel (hydroxypropylcellulose) (HPC)); 48 % of control (dose: 400.0 mg/kg/injection, schedule: Q04DX003 (sc), vehicle: Klucel (hydroxypropylcellulose) (HPC)); 31 % of control (dose: 800.0 mg/kg/injection, schedule: Q04DX003 (sc), vehicle: Klucel (hydroxypropylcellulose) (HPC)).
Regarding `CN(N=O)C(N)=O`, the T/C was 41 % of control under setting [7]; 83 % of control (dose: 12.5 mg/kg/injection, schedule: Q04DX003 (sc), vehicle: saline); 54 % of control (dose: 25.0 mg/kg/injection, schedule: Q04DX003 (sc), vehicle: saline); 54 % of control (dose: 25.0 mg/kg/injection, schedule: Q04DX003 (sc), vehicle: suspension in saline); 17 % of control (dose: 50.0 mg/kg/injection, schedule: Q04DX003 (sc), vehicle: saline with Tween-80); 6 % of control (dose: 50.0 mg/kg/injection, schedule: Q04DX003 (sc), vehicle: saline). The T/C was 63 % of control (dose: 50.0 mg/kg/injection, schedule: Q04DX003 (sc), vehicle: suspension in saline); -68 % of control (dose: 100.0 mg/kg/injection, schedule: Q04DX003 (sc), vehicle: saline with Tween-80); -100 % of control (dose: 100.0 mg/kg/injection, schedule: Q04DX003 (sc), vehicle: saline); 17 % of control (dose: 100.0 mg/kg/injection, schedule: Q04DX003 (sc), vehicle: suspension in saline).
`CCCCCCCCCCCC(=O)NC1CC(O[C@H]2C[C@](O)(C(=O)CO)Cc3c(O)c4c(c(O)c32)C(=O)c2c(OC)cccc2C4=O)OC(C)C1O` (stereo partly specified): the T/C was 59 % of control (dose: 100.0 mg/kg/injection, schedule: Q01DX010 (sc), vehicle: water); 97 % of control (dose: 200.0 mg/kg/injection, schedule: Q01DX010 (sc), vehicle: water); 53 % of control (dose: 400.0 mg/kg/injection, schedule: Q01DX010 (sc), vehicle: water).
In the case of `CC(=O)O[C@@H]1[C@@H](O)C2=C3[C@]4(C)[C@@H]1C(C)(C)C(=O)C[C@@H]4[C@]3(O)[C@H](OC(C)=O)[C@@]1(C[C@@H]1C)C2=O`, the T/C reads like this: under setting [7], 106 % of control; (dose: 25.0 mg/kg/injection, schedule: Q01DX010 (sc), vehicle: saline with Tween-80) 114 % of control; (dose: 50.0 mg/kg/injection, schedule: Q01DX010 (sc), vehicle: saline with Tween-80) 319 % of control.
